# Reference: the supplement of paper PMC11061612
# Assays:
# Assay in all cases: Bliss excess, mean over the matrix (fraction); higher = more synergy
# [1] = tested on: NCI-H1694 (Small Cell Lung Carcinoma)
# How it was run: (§1)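 Cell lines in DMEM/F12 or RPMI with 10% FBS were plated in 1536-well plates, held 24 hours at 37°C, 5% CO2, then given two-drug dose matrices for 72 hours (DMSO typically 0.2%). Viability was read by CellTiter-Glo 2.0 luminescence and scaled as inhibition from 0 (vehicle wells) to 1 (blank wells). Combination Emax is the second-highest inhibition in the matrix; Bliss excess is observed combination effect minus expected EA + EB − EA·EB, EA and EB being single-agent effects.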
# ES7 (Ewing's Sarcoma) = tested on: ES7 (Ewing's Sarcoma)
# How it was run: as §1
# [2] = tested on: KARPAS-1106P (B-Cell Non-Hodgkin's Lymphoma)
# How it was run: as §1
# [3] = tested on: 697 (B-Lymphoblastic Leukemia)
# How it was run: as §1
# [4] = tested on: LS-513 (Colorectal Carcinoma)
# How it was run: as §1
# J82 (Bladder Carcinoma) = tested on: J82 (Bladder Carcinoma)
# How it was run: as §1
# [5] = tested on: MDA-MB-157 (Breast Carcinoma)
# How it was run: as §1
# [6] = tested on: KATOIII (Gastric Carcinoma)
# How it was run: as §1
# [7] = tested on: KM-H2 (Hodgkin's Lymphoma)
# How it was run: as §1
# [8] = tested on: KARPAS-620 (Plasma Cell Myeloma)
# How it was run: as §1
# DSH1 (Bladder Carcinoma) = tested on: DSH1 (Bladder Carcinoma)
# How it was run: as §1
# [9] = tested on: OCI-AML2 (Acute Myeloid Leukemia)
# How it was run: as §1
# [10] = tested on: SW1088 (Low Grade Glioma)
# How it was run: as §1
# [11] = tested on: DB (B-Cell Non-Hodgkin's Lymphoma)
# How it was run: as §1
# [12] = tested on: NCI-H1299 (Non-Small Cell Lung Carcinoma)
# How it was run: as §1
# [13] = tested on: IHH-4 (Thyroid Gland Carcinoma)
# How it was run: as §1
# [14] = tested on: CFPAC-1 (Pancreatic Carcinoma)
# How it was run: as §1
# SN12C (Kidney Carcinoma) = tested on: SN12C (Kidney Carcinoma)
# How it was run: as §1
# [15] = tested on: COR-L95 (Small Cell Lung Carcinoma)
# How it was run: as §1
# [16] = tested on: SUIT-2 (Pancreatic Carcinoma)
# How it was run: as §1
Compound,Bliss excess [1],Bliss excess (ES7 (Ewing's Sarcoma)),Bliss excess [2],Bliss excess [3],Bliss excess [4],Bliss excess (J82 (Bladder Carcinoma)),Bliss excess [5],Bliss excess [6],Bliss excess [7],Bliss excess [8],Bliss excess (DSH1 (Bladder Carcinoma)),Bliss excess [9],Bliss excess [10],Bliss excess [11],Bliss excess [12],Bliss excess [13],Bliss excess [14],Bliss excess (SN12C (Kidney Carcinoma)),Bliss excess [15],Bliss excess [16]
"CN(CCO)CC[C@H](CSc1ccccc1)Nc1ccc(S(=O)(=O)NC(=O)c2ccc(N3CCC([C@@H](O)c4ccccc4-c4ccc(Cl)cc4)CC3)cc2)cc1S(=O)(=O)C(F)(F)F [AZD4320] + CN(C)CCCOc1ccc(-c2ccc3ncc4c(c3c2)n(C2CCOCC2)c(=O)n4C)cn1 [AZD0156] (first compound max 1 µM, 7x7, partner max 1 µM)",0.0791,0.0177,-0.0055,-0.0116,-0.0391,-0.0464,-0.0046,-0.034,-0.0038,0.0092,0.0303,-0.0296,-0.033,0.0373,-0.0462,-0.022,-0.0354,-0.0633,0.0046,-0.0407
"C=CCn1c(=O)c2cnc(Nc3ccc(N4CCN(C)CC4)cc3)nc2n1-c1cccc(C(C)(C)O)n1 [AZD1775] + C[C@@H]1COCCN1C2=NC(=NC(=C2)C3(CC3)[S@](=N)(=O)C)C4=C5C=CNC5=NC=C4 [AZD6738] (first compound max 1 µM, partner max 10 µM)",0.0818,0.0753,0.0072,0.047,-0.0242,0.0305,0.0217,-0.0139,0.0647,0.0335,0.0201,0.0349,-0.0902,-0.0023,-0.0268,0.0534,-0.0369,-0.0359,-0.101,-0.0287
"Cc1c2c(nn1C)CSCc1cc(n(C)n1)CSc1cc(c3ccccc3c1)OCCCc1c(C(=O)O)n(C)c3c-2c(Cl)ccc13 [AZD5991] + CCN(CCO)CCCOc1ccc2c(Nc3cc(CC(=O)Nc4cccc(F)c4)[nH]n3)ncnc2c1 [AZD2811] (first compound max 1 µM, 7x7, partner max 1 µM)",0.0939,0.0267,0.0744,-0.0039,0.0137,0.0288,0.078,-0.0687,0.0654,0.066,0.0492,0.126,-0.0485,0.0711,-0.0012,0.0306,-0.0148,0.0191,0.0028,0.0126
"C[C@@H](c1ccc2nccn2c1)n1nnc2ncc(-c3cnn(C)c3)nc21 [Savolitinib] + Cc1c2c(nn1C)CSCc1cc(n(C)n1)CSc1cc(c3ccccc3c1)OCCCc1c(C(=O)O)n(C)c3c-2c(Cl)ccc13 [AZD5991] (first compound max 1 µM, 7x7, partner max 1 µM)",0.0027,-0.017,-0.0518,-0.0516,-0.0219,-0.0717,-0.0501,-0.0149,-0.0286,-0.049,0.0335,-0.0167,0.021,0.0299,-0.0519,-0.0182,-0.0875,-0.0535,-0.0171,-0.0224
"NC1(C(=O)N[C@@H](CCO)c2ccc(Cl)cc2)CCN(c2ncnc3[nH]ccc23)CC1 [Capivasertib] + COc1nnc2ccc(N3CCC(c4ccc(OCCN5CCN(C)C(=O)[C@H]5C)cc4)CC3)nn12 [AZD5153] (first compound max 10 µM, 7x7, partner max 1 µM)",0.0007,0.104,0.0728,-0.065,-0.0246,0.0421,0.0204,-0.0386,0.0144,-0.0154,-0.0394,0.0068,0.0253,-0.0003,0.0174,0.0199,0.0332,-0.0155,-0.0272,0.0367
"Cc1c2c(nn1C)CSCc1cc(n(C)n1)CSc1cc(c3ccccc3c1)OCCCc1c(C(=O)O)n(C)c3c-2c(Cl)ccc13 [AZD5991] + CC1(C)CCC(CN2CCN(c3ccc(C(=O)NS(=O)(=O)c4ccc(NCC5CCOCC5)c([N+](=O)[O-])c4)c(Oc4cnc5[nH]ccc5c4)c3)CC2)=C(c2ccc(Cl)cc2)C1 [Venetoclax] (first compound max 1 µM, 7x7, partner max 1 µM)",0.076,0.102,-0.0146,-0.0564,-0.0523,-0.0232,0.004,-0.0176,-0.0094,0.119,0.0397,0.143,-0.0187,0.185,-0.031,0.0037,-0.0112,-0.0193,0.0616,-0.0287
"COc1cccc(OCCCN)c1-c1cc(Nc2cnc(C#N)cn2)n[nH]1 [Prexasertib] + CN(C)CCCOc1ccc(-c2ccc3ncc4c(c3c2)n(C2CCOCC2)c(=O)n4C)cn1 [AZD0156] (first compound max 1 µM, 7x7, partner max 1 µM)",-0.0433,-0.0329,-0.0308,-0.0087,0.0156,0.0036,-0.0226,-0.0053,-0.0337,0.0277,-0.0243,-0.0276,-0.0241,0.0289,-0.0332,0.0504,0.0232,-0.0387,-0.0723,-0.0055
"Cn1cnc2c(F)c(Nc3ccc(Br)cc3Cl)c(C(=O)NOCCO)cc21 [Selumetinib] + C[C@@H]1COCCN1C2=NC(=NC(=C2)C3(CC3)[S@](=N)(=O)C)C4=C5C=CNC5=NC=C4 [AZD6738] (first compound max 10 µM, 7x7, partner max 10 µM)",-0.0037,-0.0585,-0.0007,0.0344,0.0046,0.0262,-0.0203,-0.0433,-0.0148,0.0471,-0.0734,0.0141,-0.0737,-0.0353,0.0454,0.0224,-0.0112,-0.0169,-0.0778,0.0298
"NC1(C(=O)N[C@@H](CCO)c2ccc(Cl)cc2)CCN(c2ncnc3[nH]ccc23)CC1 [Capivasertib] + Cn1cnc2c(F)c(Nc3ccc(Br)cc3Cl)c(C(=O)NOCCO)cc21 [Selumetinib] (first compound max 10 µM, 7x7, partner max 10 µM)",-0.0078,0.0372,0.0759,-0.165,0.0031,-0.021,-0.014,0.0291,-0.0084,0.114,0.121,0.0547,0.0342,-0.0093,0.0153,-0.0165,0.0351,0.0041,-0.0359,-0.0181
"CN(CCO)CC[C@H](CSc1ccccc1)Nc1ccc(S(=O)(=O)NC(=O)c2ccc(N3CCC([C@@H](O)c4ccccc4-c4ccc(Cl)cc4)CC3)cc2)cc1S(=O)(=O)C(F)(F)F [AZD4320] + C1CN(CCC1(C(=O)N[C@@H](CCO)C2=CC=C(C=C2)Cl)N)C3=NC=NC4=C3C=CN4 [Capivasertib] (first compound max 1 µM, 7x7, partner max 3 µM)",0.0202,0.0083,-0.0259,-0.0179,-0.0728,-0.031,-0.0178,-0.0385,-0.0205,0.0032,-0.0038,-0.0333,0.0242,-0.0196,-0.029,-0.0253,-0.0527,-0.0636,-0.0203,-0.054
"CC1(C)CCC(CN2CCN(c3ccc(C(=O)NS(=O)(=O)c4ccc(NCC5CCOCC5)c([N+](=O)[O-])c4)c(Oc4cnc5[nH]ccc5c4)c3)CC2)=C(c2ccc(Cl)cc2)C1 [Venetoclax] + Cc1cc2ncnn2cc1Nc1ncc2c(n1)n(C1CCOCC1)c(=O)n2C [AZD7648] (first compound max 1 µM, 7x7, partner max 10 µM)",-0.0247,-0.0735,-0.0672,-0.0154,-0.0294,-0.0202,-0.0154,-0.0076,-0.0322,0.0454,-0.027,0.0273,-0.105,0.0225,-0.0352,-0.027,-0.0359,-0.0471,-0.039,-0.0271
"COc1cccc2c1C(=O)c1c(O)c3c(c(O)c1C2=O)C[C@@](O)(C(=O)CO)C[C@@H]3O[C@H]1C[C@H](N)[C@H](O)[C@H](C)O1 [Doxorubicin] + Cc1cc2ncnn2cc1Nc1ncc2c(n1)n(C1CCOCC1)c(=O)n2C [AZD7648] (first compound max 1 µM, 7x7, partner max 10 µM)",0.12,0.0997,0.0713,0.101,0.057,0.0106,0.0033,-0.0354,0.116,-0.0381,0.0268,0.0125,0.0309,0.0888,0.0329,0.109,0.0253,0.0191,0.0084,0.0432
"CN(CCO)CC[C@H](CSc1ccccc1)Nc1ccc(S(=O)(=O)NC(=O)c2ccc(N3CCC([C@@H](O)c4ccccc4-c4ccc(Cl)cc4)CC3)cc2)cc1S(=O)(=O)C(F)(F)F [AZD4320] + Cc1cc2ncnn2cc1Nc1ncc2c(n1)n(C1CCOCC1)c(=O)n2C [AZD7648] (first compound max 1 µM, 7x7, partner max 10 µM)",0.0357,-0.0455,0.0101,-0.0305,-0.0543,-0.0435,-0.0225,-0.0343,-0.0231,0.0178,-0.0266,0.0136,-0.0184,-0.0149,-0.0408,-0.0451,-0.0345,-0.0578,0.0276,-0.0389
"CCc1c2c(nc3ccc(O)cc13)-c1cc3c(c(=O)n1C2)COC(=O)[C@]3(O)CC [SN-38] + CN(C)CCCOc1ccc(-c2ccc3ncc4c(c3c2)n(C2CCOCC2)c(=O)n4C)cn1 [AZD0156] (first compound max 0.3 µM, 7x7, partner max 1 µM)",-0.0333,0.0565,-0.0346,0.0689,-0.0878,-0.0299,0.0653,-0.0305,0.0794,-0.0242,-0.0382,0.0764,0.0324,-0.0305,0.0495,0.0457,-0.0436,0.011,-0.0989,0.0446
